Experimental data: patent US8461348B2, “Heterocyclic derivative and use thereof” (Takeda Pharmaceutical Company Limited, priority 2008, dated 2013)

Legend:
Purified sGC = target: T1, Purified sGC (Homo sapiens, UniProt Q02153); test: Measurement of sGC activation in vitro (cGMP production by purified sGC); format: biochemical; details: 20 min; test compound diluted to 30 μM, 10 μL/well plus equal volumes of sGC and GTP; 20 min at room temperature; cGMP without compound (1% DMSO) = 100%; read-out: cGMP amount (%) in experiment system
T1 sequence (Q02153 1-619): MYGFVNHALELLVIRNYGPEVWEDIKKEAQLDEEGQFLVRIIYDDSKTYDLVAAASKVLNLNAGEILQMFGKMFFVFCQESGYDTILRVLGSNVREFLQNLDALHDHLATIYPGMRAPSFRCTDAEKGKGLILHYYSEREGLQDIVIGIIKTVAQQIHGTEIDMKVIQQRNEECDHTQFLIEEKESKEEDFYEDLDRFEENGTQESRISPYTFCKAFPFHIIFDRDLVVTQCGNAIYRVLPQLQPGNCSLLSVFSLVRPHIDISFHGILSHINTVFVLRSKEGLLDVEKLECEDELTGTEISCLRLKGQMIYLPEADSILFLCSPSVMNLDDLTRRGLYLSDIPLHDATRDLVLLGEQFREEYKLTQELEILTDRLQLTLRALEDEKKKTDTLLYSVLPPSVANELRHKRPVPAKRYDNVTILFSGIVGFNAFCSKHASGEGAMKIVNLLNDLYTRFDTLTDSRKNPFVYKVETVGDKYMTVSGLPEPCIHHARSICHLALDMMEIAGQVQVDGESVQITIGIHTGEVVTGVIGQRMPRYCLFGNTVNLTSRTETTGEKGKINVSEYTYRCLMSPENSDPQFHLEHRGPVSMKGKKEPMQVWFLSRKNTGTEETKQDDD
T1 sequence (Q02108 1-690 partner): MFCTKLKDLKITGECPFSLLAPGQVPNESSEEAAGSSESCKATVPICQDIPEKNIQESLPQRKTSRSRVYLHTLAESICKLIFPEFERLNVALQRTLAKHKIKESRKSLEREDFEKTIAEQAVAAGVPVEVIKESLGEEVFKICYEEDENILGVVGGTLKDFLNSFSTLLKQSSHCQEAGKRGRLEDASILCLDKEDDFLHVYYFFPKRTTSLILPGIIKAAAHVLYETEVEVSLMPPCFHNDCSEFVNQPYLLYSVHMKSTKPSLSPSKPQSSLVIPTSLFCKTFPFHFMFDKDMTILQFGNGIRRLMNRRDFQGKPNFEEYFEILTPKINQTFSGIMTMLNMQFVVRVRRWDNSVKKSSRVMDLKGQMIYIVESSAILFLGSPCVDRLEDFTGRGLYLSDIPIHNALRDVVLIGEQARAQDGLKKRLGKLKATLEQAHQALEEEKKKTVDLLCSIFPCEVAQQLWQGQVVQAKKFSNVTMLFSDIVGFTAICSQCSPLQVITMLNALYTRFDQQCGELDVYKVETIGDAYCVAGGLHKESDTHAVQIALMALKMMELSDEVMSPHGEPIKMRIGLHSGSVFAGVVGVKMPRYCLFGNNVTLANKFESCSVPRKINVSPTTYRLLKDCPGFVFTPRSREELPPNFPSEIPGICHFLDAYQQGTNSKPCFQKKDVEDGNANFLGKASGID
Method: To evaluate sGC activation of each compound, the following in vitro tests were performed.
A test compound was diluted with a reaction buffer (50 mM HEPES, 5 mM MgCl2, 2 mM DTT, 0.5 mM IBMX (isobutylmethylxanthine), 0.01% BSA) to 30 μM (3% DMSO), and dispensed to a 384 well plate (manufactured by REMP) at 10 μL/well. Purified sGC was diluted with the reaction buffer to 240 ng/mL and added to the plate at 10 μL/well. Then, 120 μM GTP prepared with the reaction buffer was added to the reaction plate at 10 μL/well to initiate an enzyme reaction. After stirring at room temperature for 20 min to allow reaction, 125 mM Na2CO3 was added at 15 μL/well to quench the reaction. Thereafter, 125 mM Zn Acetate (zinc acetate) was added at 15 μL/well to allow precipitation of unreacted GTP. Then, the amount of the resulting cGMP contained in the supernatant was quantified using a CatchPoint cGMP assay kit (molecular devices). The method followed the protocol attached to the assay kit. For detection, Super Signal ELISA Femto (Thermo) was used, and the amount of luminescence was measured with ARVO (Perkinelmer). The sGC activity with addition of the compound was calculated using the amount of cGMP produced without addition of the compound (in the presence of 1% DMSO) as 100%.

male SHR = test: Measurement of hypotensive action in vivo in SHR; set-up: species or system rat; details: single oral administration, 5 hr after administration
Method: Animal used was male SHR (32- to 40-week-old, SHR/Izm, Japan SLC, Inc.). Two days before drug administration, a cannula (SP10+SP45, Natsume Seisakusho Co., Ltd.) filled with heparin physiological saline (200 U/mL, Ajinomoto Pharma Co., Ltd.) was inserted from the femoral artery under anesthesia with pentobarbital Na (50 mg/kg, i.p., Kyoritsu Seiyaku Corporation) and dwelled. The other end of the cannula was subcutaneously passed and exposed on the back of the neck where it was fixed. After a recovery period, the artery dwelling cannula was connected to a pressure transducer (DTX Plus DT-XXAD, Japan Becton Dickinson) and output on a pen recorder (linear recorder WR3320-4µL, Graphtec Corporation) via a polygraph (AP-641G, Nihon Kohden Co.), and the blood pressure waveform was recorded. The heart rate was calculated from the blood pressure waveform. After stable blood pressure was obtained, a solvent or a drug was orally administered once, and average blood pressure and average heart rate were measured over time. The blood pressure was measured under fasting, and the rats were reared under free ingestion of feed and water except the blood pressure measurement day. The drug was suspended in 0.5% methylcellulose aqueous solution. The administration dose was 2 mL/kg.

Compound | activity at 10 µM (Purified sGC) | hypotension after 5 hr from the administration (male SHR; 30 mg/kg) | hypotension after 5 hr from the administration (male SHR; 10 mg/kg)
O=C(O)c1cnn(Cc2nc(-c3cccc(C(F)(F)F)c3)cs2)c1 [Example 1, 1-({4-[3-(trifluoromethyl)phenyl]-1,3-thiazol-2-yl}methyl)-1H-pyrazole-4-carboxylic acid] | > 1000% | 15.5 mmHg | 
Cc1cc(C(=O)O)nn1Cc1nc(-c2ccc(Cl)c(Cl)c2)cs1 [Example 6, 1-{[4-(3,4-dichlorophenyl)-1,3-thiazol-2-yl]methyl}-5-methyl-1H-pyrazole-3-carboxylic acid] | 420% |  | 
Cc1c(C(=O)O)cnn1Cc1nc(-c2cccc(C(F)(F)F)c2)cs1 [Example 13, 5-methyl-1-({4-[3-(trifluoromethyl)phenyl]-1,3-thiazol-2-yl}methyl)-1H-pyrazole-4-carboxylic acid] | > 1000% |  | 
FC(F)(F)c1cccc(-c2csc(Cn3cc(-c4nn[nH]n4)cn3)n2)c1 [Example 18, 5-[1-({4-[3-(trifluoromethyl)phenyl]-1,3-thiazol-2-yl}methyl)-1H-pyrazol-4-yl]-2H-tetrazole] | 503% |  | 
O=C(O)c1cnn(Cc2csc(-c3cccc(C(F)(F)F)c3)n2)c1 [Example 21, 1-({2-[3-(trifluoromethyl)phenyl]-1,3-thiazol-4-yl}methyl)-1H-pyrazole-4-carboxylic acid] | > 1000% |  | 
O=C(O)c1cnn(Cc2ncc(-c3cccc(C(F)(F)F)c3)s2)c1 [Example 23, 1-({5-[3-(trifluoromethyl)phenyl]-1,3-thiazol-2-yl}methyl)-1H-pyrazole-4-carboxylic acid] | 996% |  | 
O=C(O)c1cnn(Cc2nc(-c3cccc(C(F)(F)F)c3F)cs2)c1 [Example 52, 1-({4-[2-fluoro-3-(trifluoromethyl)phenyl]-1,3-thiazol-2-yl}methyl)-1H-pyrazole-4-carboxylic acid] | > 1000% | 29.4 mmHg | 
Cc1sc(-c2cccc(C(F)(F)F)c2F)nc1Cn1cc(C(=O)O)cn1 [Example 80, 1-({2-[2-fluoro-3-(trifluoromethyl)phenyl]-5-methyl-1,3-thiazol-4-yl}methyl)-1H-pyrazole-4-carboxylic acid] | > 1000% |  | 14.7 mmHg
Cc1sc(-c2cc(Cl)cc(C(F)(F)F)c2)nc1Cn1cc(C(=O)O)cn1 [Example 83, 1-({2-[3-chloro-5-(trifluoromethyl)phenyl]-5-methyl-1,3-thiazol-4-yl}methyl)-1H-pyrazole-4-carboxylic acid] | > 1000% |  | 14.5 mmHg
O=C(O)c1ccc(Cc2nc(-c3ccc(Cl)c(Cl)c3)cs2)cc1 [Example 179, 4-{[4-(3,4-dichlorophenyl)-1,3-thiazol-2-yl]methyl}benzoic acid] | > 1000% |  | 
O=C(O)c1ccc(Cc2nc(-c3cccc(C(F)(F)F)c3F)cs2)cc1 [Example 186, 4-({4-[2-fluoro-3-(trifluoromethyl)phenyl]-1,3-thiazol-2-yl}methyl)benzoic acid] | > 1000% |  | 
O=C(O)c1cnn(-c2nc(-c3ccc(Cl)c(Cl)c3)cs2)c1C(F)(F)F [Ref. Ex. 1, 1-[4-(3,4-dichlorophenyl)-1,3-thiazol-2-yl]-5-(trifluoromethyl)-1H-pyrazole-4-carboxylic acid] | > 1000% |  | 
O=C(O)c1cnn(-c2nc(-c3ccc(Cl)s3)cs2)c1C(F)(F)F [Ref. Ex. 3, 1-[4-(5-chlorothiophen-2-yl)-1,3-thiazol-2-yl]-5-(trifluoromethyl)-1H-pyrazole-4-carboxylic acid] | > 1000% |  | 
O=C(O)c1cnn(-c2nc(-c3ccc(Cl)c(Cl)c3)cs2)c1C1CC1 [Ref. Ex. 4, 5-cyclopropyl-1-[4-(3,4-dichlorophenyl)-1,3-thiazol-2-yl]-1H-pyrazole-4-carboxylic acid] | > 1000% |  | 
Cc1c(C(=O)O)cnn1-c1nc(-c2ccc(Cl)c(Cl)c2)cs1 [Ref. Ex. 5, 1-[4-(3,4-dichlorophenyl)-1,3-thiazol-2-yl]-5-methyl-1H-pyrazole-4-carboxylic acid] | > 1000% |  | 
O=C(O)c1cnn(-c2nc(-c3cccc(OC(F)(F)F)c3)cs2)c1C(F)(F)F [Ref. Ex. 10, 1-{4-[3-(trifluoromethoxy)phenyl]-1,3-thiazol-2-yl}-5-(trifluoromethyl)-1H-pyrazole-4-carboxylic acid] | > 1000% |  | 
O=C(O)c1cnn(-c2nc(-c3ccc(Cl)c(Cl)c3)cs2)c1 [Ref. Ex. 17, 1-[4-(3,4-dichlorophenyl)-1,3-thiazol-2-yl]-1H-pyrazole-4-carboxylic acid] | > 1000% |  | 
FC(F)(F)c1c(-c2nn[nH]n2)cnn1-c1nc(-c2ccc(Cl)c(Cl)c2)cs1 [Ref. Ex. 18, 5-{1-[4-(3,4-dichlorophenyl)-1,3-thiazol-2-yl]-5-(trifluoromethyl)-1H-pyrazol-4-yl}-2H-tetrazole] | > 1000% |  | 
CS(=O)(=O)NC(=O)c1cnn(-c2nc(-c3ccc(Cl)c(Cl)c3)cs2)c1C(F)(F)F [Ref. Ex. 19, 1-[4-(3,4-dichlorophenyl)-1,3-thiazol-2-yl]-N-(methylsulfonyl)-5-(trifluoromethyl)-1H-pyrazole-4-carboxamide] | > 1000% |  | 
O=C(Nc1cccc(Cl)c1)c1csc(-n2ncc(C(=O)O)c2C(F)(F)F)n1 [Ref. Ex. 20, 1-{4-[(3-chlorophenyl)carbamoyl]-1,3-thiazol-2-yl}-5-(trifluoromethyl)-1H-pyrazole-4-carboxylic acid] | > 1000% |  | 
O=C(O)c1cnn(-c2nc(COc3ccc(Cl)c(Cl)c3)cs2)c1C(F)(F)F [Ref. Ex. 22, 1-[4-[(3,4-dichlorophenoxy)methyl]-1,3-thiazol-2-yl]-5-(trifluoromethyl)-1H-pyrazole-4-carboxylic acid] | 766% |  | 
O=C(O)c1cnn(-c2nc(CCc3cccc(C(F)(F)F)c3)cs2)c1C(F)(F)F [Ref. Ex. 24, 5-(trifluoromethyl)-1-(4-{2-[3-(trifluoromethyl)phenyl]ethyl}-1,3-thiazol-2-yl)-1H-pyrazole-4-carboxylic acid] | > 1000% |  | 
O=C(O)c1cnn(-c2nc(Cc3cccc(C(F)(F)F)c3)cs2)c1C(F)(F)F [Ref. Ex. 25, 5-(trifluoromethyl)-1-{4-[3-(trifluoromethyl)benzyl]-1,3-thiazol-2-yl}-1H-pyrazole-4-carboxylic acid] | > 1000% |  | 
